According to patent US12077503B2, “Substituted cyclic amides and their use as herbicides” (FMC CORPORATION, priority 2015, dated 2024):

Legend:
Format in all cases: in vivo
[1] = tested on: barnyardgrass (Echinochloa crus-galli); assay: Test G Pre-Emergence Protocol; details: Echinochloa crus-galli, pre-emergence, 312 h, evaluated after 13 days; for pest or weed control at 15.625 g/ha: 15.625 g ai/ha, read-out: Barnyard grass damage rating (100=total damage to plant; 0=no damage to plant); for pest or weed control at 62.5 g/ha: 62.5 g ai/ha, 100=total damage to plant, 0=no damage to plant, read-out: plant damage rating, Barnyardgrass; for pest or weed control at 250 g/ha: 250 g ai/ha, read-out: Barnyardgrass damage rating (100=total damage to plant; 0=no damage to plant)
Outline: (§1)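 Seeds were sown in standard soil and kept one day in a glasshouse (24/16° C day/night, 14 h light, 65% humidity), then sprayed with compound in acetone/water (50:50) containing 0.5% Tween 20 at 15.625, 62.5 or 250 g/ha. Damage was scored after 13 days (0 = none, 100 = total).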

corn (Zea mays) [2] = assay: Test G Pre-Emergence Protocol; details: Zea mays, pre-emergence, 312 h, evaluated after 13 days; for plant injury at 15.625 g/ha: 15.625 g ai/ha; for plant injury at 15.625 g/ha / plant injury at 250 g/ha: read-out: Corn damage rating (100=total damage to plant; 0=no damage to plant); for plant injury at 62.5 g/ha: 62.5 g ai/ha, 100=total damage to plant, 0=no damage to plant, read-out: plant damage rating, Corn; for plant injury at 250 g/ha: 250 g ai/ha
Outline: as §1

[3] = tested on: giant foxtail (Setaria faberi); assay: Test G Pre-Emergence Protocol; details: Setaria faberi, pre-emergence, 312 h, evaluated after 13 days; for pest or weed control at 15.625 g/ha: 15.625 g ai/ha; for pest or weed control at 15.625 g/ha / pest or weed control at 250 g/ha: read-out: Foxtail, Giant damage rating (100=total damage to plant; 0=no damage to plant); for pest or weed control at 62.5 g/ha: 62.5 g ai/ha, 100=total damage to plant, 0=no damage to plant, read-out: plant damage rating, Foxtail, Giant; for pest or weed control at 250 g/ha: 250 g ai/ha
Outline: as §1

[4] = tested on: ivy-leaved morning glory (Ipomoea hederacea); assay: Test G Pre-Emergence Protocol; details: Ipomoea, pre-emergence, 312 h, evaluated after 13 days; for pest or weed control at 15.625 g/ha: 15.625 g ai/ha, read-out: Morning-glory, Ivy-leaved damage rating (100=total damage to plant; 0=no damage to plant); for pest or weed control at 62.5 g/ha: 62.5 g ai/ha, 100=total damage to plant, 0=no damage to plant, read-out: plant damage rating, Morningglory, Ivy-leaved; for pest or weed control at 250 g/ha: 250 g ai/ha, read-out: Morningglory, Ivy-leaved damage rating (100=total damage to plant; 0=no damage to plant)
Outline: as §1

[5] = tested on: redroot pigweed (Amaranthus retroflexus); assay: Test G Pre-Emergence Protocol; details: Amaranthus retroflexus, pre-emergence, 312 h, evaluated after 13 days; for pest or weed control at 15.625 g/ha: 15.625 g ai/ha; for pest or weed control at 15.625 g/ha / pest or weed control at 250 g/ha: read-out: Pigweed, Redroot damage rating (100=total damage to plant; 0=no damage to plant); for pest or weed control at 62.5 g/ha: 62.5 g ai/ha, 100=total damage to plant, 0=no damage to plant, read-out: plant damage rating, Pigweed, Redroot; for pest or weed control at 250 g/ha: 250 g ai/ha
Outline: as §1

[6] = tested on: velvetleaf (Abutilon theophrasti); assay: Test G Pre-Emergence Protocol; details: Abutilon theophrasti, pre-emergence, 312 h, evaluated after 13 days; for pest or weed control at 15.625 g/ha: 15.625 g ai/ha; for pest or weed control at 15.625 g/ha / pest or weed control at 250 g/ha: read-out: Velvetleaf damage rating (100=total damage to plant; 0=no damage to plant); for pest or weed control at 62.5 g/ha: 62.5 g ai/ha, 100=total damage to plant, 0=no damage to plant, read-out: plant damage rating, Velvetleaf; for pest or weed control at 250 g/ha: 250 g ai/ha
Outline: as §1

[7] = tested on: barnyardgrass (Echinochloa crus-galli); assay: Test G Post-Emergence Protocol; details: Echinochloa crus-galli, post-emergence, 312 h; for pest or weed control at 15.625 g/ha: 15.625 g ai/ha, evaluated after 13 days (100=total damage to plant; 0=no damage to plant), read-out: Barnyardgrass damage rating; for pest or weed control at 62.5 g/ha: 62.5 g ai/ha, read-out: Barnyardgrass damage rating (100=total damage to plant; 0=no damage to plant); for pest or weed control at 62.5 g/ha / pest or weed control at 250 g/ha: evaluated after 13 days; for pest or weed control at 250 g/ha: 250 g ai/ha, read-out: damage to plant, Barnyardgrass (100=total damage to plant; 0=no damage to plant)
Outline: (§2)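 Values are percent visual injury at 13 days after treatment (0 none, 100 total). Treatment was a post-emergence spray at 15.625, 62.5 or 250 g/ha on 8-day-old pot plants kept at 24/16 °C.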

corn (Zea mays) [8] = assay: Test G Post-Emergence Protocol; details: Zea mays, post-emergence, 312 h; for plant injury at 15.625 g/ha: 15.625 g ai/ha, evaluated after 13 days (100=total damage to plant; 0=no damage to plant), read-out: Corn damage rating; for plant injury at 62.5 g/ha: 62.5 g ai/ha, read-out: Corn damage rating (100=total damage to plant; 0=no damage to plant); for plant injury at 62.5 g/ha / plant injury at 250 g/ha: evaluated after 13 days; for plant injury at 250 g/ha: 250 g ai/ha, read-out: damage to plant, Corn (100=total damage to plant; 0=no damage to plant)
Outline: as §2

[9] = tested on: giant foxtail (Setaria faberi); assay: Test G Post-Emergence Protocol; details: Setaria faberi, post-emergence, 312 h; for pest or weed control at 15.625 g/ha: 15.625 g ai/ha, evaluated after 13 days (100=total damage to plant; 0=no damage to plant), read-out: Foxtail, Giant damage rating; for pest or weed control at 62.5 g/ha: 62.5 g ai/ha, read-out: Foxtail, Giant damage rating (100=total damage to plant; 0=no damage to plant); for pest or weed control at 62.5 g/ha / pest or weed control at 250 g/ha: evaluated after 13 days; for pest or weed control at 250 g/ha: 250 g ai/ha, read-out: damage to plant, Foxtail, Giant (100=total damage to plant; 0=no damage to plant)
Outline: as §2

[10] = tested on: ivy-leaved morning glory (Ipomoea hederacea); assay: Test G Post-Emergence Protocol; details: Ipomoea, post-emergence, 312 h; for pest or weed control at 15.625 g/ha: 15.625 g ai/ha, evaluated after 13 days (100=total damage to plant; 0=no damage to plant), read-out: Morningglory, Ivy-leaved damage rating; for pest or weed control at 62.5 g/ha: 62.5 g ai/ha, read-out: Morningglory, Ivy-leaved damage rating (100=total damage to plant; 0=no damage to plant); for pest or weed control at 62.5 g/ha / pest or weed control at 250 g/ha: evaluated after 13 days; for pest or weed control at 250 g/ha: 250 g ai/ha, read-out: damage to plant, Morningglory, Ivy-leaved (100=total damage to plant; 0=no damage to plant)
Outline: as §2

[11] = tested on: redroot pigweed (Amaranthus retroflexus); assay: Test G Post-Emergence Protocol; details: Amaranthus retroflexus, post-emergence, 312 h; for pest or weed control at 15.625 g/ha: 15.625 g ai/ha, evaluated after 13 days (100=total damage to plant; 0=no damage to plant), read-out: Pigweed, Redroot damage rating; for pest or weed control at 62.5 g/ha: 62.5 g ai/ha, read-out: Pigweed, Redroot damage rating (100=total damage to plant; 0=no damage to plant); for pest or weed control at 62.5 g/ha / pest or weed control at 250 g/ha: evaluated after 13 days; for pest or weed control at 250 g/ha: 250 g ai/ha, read-out: damage to plant, Pigweed, Redroot (100=total damage to plant; 0=no damage to plant)
Outline: as §2

[12] = tested on: velvetleaf (Abutilon theophrasti); assay: Test G Post-Emergence Protocol; details: Abutilon theophrasti, post-emergence, 312 h; for pest or weed control at 15.625 g/ha: 15.625 g ai/ha, evaluated after 13 days (100=total damage to plant; 0=no damage to plant), read-out: Velvetleaf damage rating; for pest or weed control at 62.5 g/ha: 62.5 g ai/ha, read-out: Velvetleaf damage rating (100=total damage to plant; 0=no damage to plant); for pest or weed control at 62.5 g/ha / pest or weed control at 250 g/ha: evaluated after 13 days; for pest or weed control at 250 g/ha: 250 g ai/ha, read-out: damage to plant, Velvetleaf (100=total damage to plant; 0=no damage to plant)
Outline: as §2

Structure (SMILES)	pest or weed control at 15.625 g/ha [1] [%]	pest or weed control at 62.5 g/ha [1] [%]	pest or weed control at 250 g/ha [1] [%]	plant injury at 15.625 g/ha (corn (Zea mays) [2]) [%]	plant injury at 62.5 g/ha (corn (Zea mays) [2]) [%]	plant injury at 250 g/ha (corn (Zea mays) [2]) [%]	pest or weed control at 15.625 g/ha [3] [%]	pest or weed control at 62.5 g/ha [3] [%]	pest or weed control at 250 g/ha [3] [%]	pest or weed control at 15.625 g/ha [4] [%]	pest or weed control at 62.5 g/ha [4] [%]	pest or weed control at 250 g/ha [4] [%]	pest or weed control at 15.625 g/ha [5] [%]	pest or weed control at 62.5 g/ha [5] [%]	pest or weed control at 250 g/ha [5] [%]	pest or weed control at 15.625 g/ha [6] [%]	pest or weed control at 62.5 g/ha [6] [%]	pest or weed control at 250 g/ha [6] [%]	pest or weed control at 15.625 g/ha [7] [%]	pest or weed control at 62.5 g/ha [7] [%]	other results
Cc1nc(NC(=O)[C@@H]2C(=O)N(C)C[C@H]2c2ccc(C(F)(F)F)cc2)ccc1F (racemic) [Compound 1613]	0	0	70	0	0	0	0	50	90	0	0	0	0	0	10	0	0	10	0	20	pest or weed control at 250 g/ha [7]: 60%; plant injury at 15.625 g/ha (corn (Zea mays) [8]): 0%; plant injury at 62.5 g/ha (corn (Zea mays) [8]): 0%; plant injury at 250 g/ha (corn (Zea mays) [8]): 0%; pest or weed control at 15.625 g/ha [9]: 20%; pest or weed control at 62.5 g/ha [9]: 70%; pest or weed control at 250 g/ha [9]: 80%; pest or weed control at 15.625 g/ha [10]: 0%; pest or weed control at 62.5 g/ha [10]: 0%; pest or weed control at 250 g/ha [10]: 0%; pest or weed control at 15.625 g/ha [11]: 0%; pest or weed control at 62.5 g/ha [11]: 50%; pest or weed control at 250 g/ha [11]: 60%; pest or weed control at 15.625 g/ha [12]: 0%; pest or weed control at 62.5 g/ha [12]: 20%; pest or weed control at 250 g/ha [12]: 30%
CN1C[C@@H](c2ccc(C(F)(F)F)cc2)[C@H](C(=O)Nc2cc(O)nc(C(F)(F)F)n2)C1=O (racemic) [Compound 1614]	0	0	0	0	0	0	0	0	0	0	0	0	0	0	80	0	0	70	0	0	pest or weed control at 250 g/ha [7]: 0%; plant injury at 15.625 g/ha (corn (Zea mays) [8]): 0%; plant injury at 62.5 g/ha (corn (Zea mays) [8]): 0%; plant injury at 250 g/ha (corn (Zea mays) [8]): 0%; pest or weed control at 15.625 g/ha [9]: 0%; pest or weed control at 62.5 g/ha [9]: 0%; pest or weed control at 250 g/ha [9]: 0%; pest or weed control at 15.625 g/ha [10]: 0%; pest or weed control at 62.5 g/ha [10]: 0%; pest or weed control at 250 g/ha [10]: 0%; pest or weed control at 15.625 g/ha [11]: 0%; pest or weed control at 62.5 g/ha [11]: 0%; pest or weed control at 250 g/ha [11]: 80%; pest or weed control at 15.625 g/ha [12]: 0%; pest or weed control at 62.5 g/ha [12]: 0%; pest or weed control at 250 g/ha [12]: 20%
Cc1c(Br)cccc1NC(=O)[C@@H]1C(=O)N(C)C[C@H]1c1ccc(C(F)(F)F)cc1 (racemic) [Compound 1619]	0	0	10	0	0	0	0	0	70	0	0	10	0	0	20	0	0	10	0	10	pest or weed control at 250 g/ha [7]: 70%; plant injury at 15.625 g/ha (corn (Zea mays) [8]): 0%; plant injury at 62.5 g/ha (corn (Zea mays) [8]): 0%; plant injury at 250 g/ha (corn (Zea mays) [8]): 10%; pest or weed control at 15.625 g/ha [9]: 0%; pest or weed control at 62.5 g/ha [9]: 60%; pest or weed control at 250 g/ha [9]: 70%; pest or weed control at 15.625 g/ha [10]: 0%; pest or weed control at 62.5 g/ha [10]: 10%; pest or weed control at 250 g/ha [10]: 30%; pest or weed control at 15.625 g/ha [11]: 0%; pest or weed control at 62.5 g/ha [11]: 20%; pest or weed control at 250 g/ha [11]: 50%; pest or weed control at 15.625 g/ha [12]: 0%; pest or weed control at 62.5 g/ha [12]: 0%; pest or weed control at 250 g/ha [12]: 0%
